Assays:
[1] = in vivo; cited from earlier work
in vivo = conditions: delivered sublingually or transmucosally
Protocol: 7-methoxyflavone is an aromatase inhibitor. Aromatase inhibitors work by inhibiting the action of the enzyme aromatase, which converts androgens into estrogens by a process called aromatization. 7-methoxyflavone is a compound having poor bioavailability of about 5% when ingested. According to an embodiment of the present invention, from about 5 mg to 50 mg, and preferably from about 20 mg to 30 mg of 7-methoxyflavone may be included in the formulations and dosage forms of the present invention, when delivered sublingually or transmucosally. […] According to an embodiment, the 7-methoxyflavone may be from a plant extract. 7-methoxyflavone has been found in Meliaceae and Rutaceae plants. According to an embodiment, the 7-methoxyflavone may therefore be from an extract containing at least 90% 7-methoxyflavone, standardized. Preferably, extract contains at least […] 7-methoxyflavone, standardized.
According to an embodiment of the present invention, from about 5 mg to 50 mg, and preferably from about 20 mg to 30 mg of 7,8-benzoflavone may be included in the formulations and dosage forms of the present invention, when delivered sublingually or transmucosally. According to an embodiment, the half-life of 7,8-benzoflavone is about 1-2 h when delivered sublingually or transmucosally.

[2] = prior art U.S. Pat. No. 5,880,117; humans; cited from earlier work

| SMILES | bioavailability [1] | half-life (in vivo) | time of concentration peak after administration [2] |
| --- | --- | --- | --- |
| COc1ccc2c(=O)cc(-c3ccccc3)oc2c1 [7-methoxyflavone] | about 5% | 8 to 12 h | – |
| O=c1cc(-c2ccccc2)oc2c1ccc1ccccc12 [7,8-benzoflavone, 2-phenyl-benzo(h)chromen-4-one] | – | 1 to 2 h | – |
| C[C@]12CC[C@H]3[C@@H](CCC4=C[C@@H](O)CC[C@@]43C)[C@@H]1CC[C@@H]2O [4-androstene-3β, 17β-diol] | – | – | ≤ 90 min |

Source: patent US20160361258A1 (priority 2015, published 2016)
